Assay [1] concerns the target Proton Potassium ATPase (H+ K+ ATPase) (Ovis aries, UniProt A0ACI6QGK8). The experiment in a line: Proton potassium ATPase inhibition (PPI), inorganic phosphate release. The class given is biochemical, sheep. The conditions noted are these: calculated contribution of GRAOX components. As to the method:
Fresh sheep stomach was obtained from local slaughterhouse at Mysore. The mucosa of gastric fundus was cut off and the inner layer were scraped for parietal cells and homogenized in 16 mM Tris buffer (pH 7.4) containing 10% triton-x100 and centrifuged at 6000 rpm for 10 min. The supernatant (enzyme extract) was used for the assay. Protein content was determined according to Brad ford's method using BSA as standard.
Inorganic phosphate formed was measured spectrophotometrically at 400 nm. Enzyme activity was calculated as μ moles of Pi released/hr at various doses of GRAOX and GRPP. […] (FIG. 1, Table. 1)

Assay [2] can be described thus: Antioxidant (Aox) potency of identified phenolic acids. The conditions noted are these: for Contribution towards AOX potency of GRAOX: calculated contribution of GRAOX components. As to the method: The identified phenolic acids were examined for their ability to inhibit proton potassium ATPase activity and their antioxidant potency was also determined.

Proton Potassium ATPase (H+ K+ ATPase), sequence (A0ACI6QGK8 entry or part of it): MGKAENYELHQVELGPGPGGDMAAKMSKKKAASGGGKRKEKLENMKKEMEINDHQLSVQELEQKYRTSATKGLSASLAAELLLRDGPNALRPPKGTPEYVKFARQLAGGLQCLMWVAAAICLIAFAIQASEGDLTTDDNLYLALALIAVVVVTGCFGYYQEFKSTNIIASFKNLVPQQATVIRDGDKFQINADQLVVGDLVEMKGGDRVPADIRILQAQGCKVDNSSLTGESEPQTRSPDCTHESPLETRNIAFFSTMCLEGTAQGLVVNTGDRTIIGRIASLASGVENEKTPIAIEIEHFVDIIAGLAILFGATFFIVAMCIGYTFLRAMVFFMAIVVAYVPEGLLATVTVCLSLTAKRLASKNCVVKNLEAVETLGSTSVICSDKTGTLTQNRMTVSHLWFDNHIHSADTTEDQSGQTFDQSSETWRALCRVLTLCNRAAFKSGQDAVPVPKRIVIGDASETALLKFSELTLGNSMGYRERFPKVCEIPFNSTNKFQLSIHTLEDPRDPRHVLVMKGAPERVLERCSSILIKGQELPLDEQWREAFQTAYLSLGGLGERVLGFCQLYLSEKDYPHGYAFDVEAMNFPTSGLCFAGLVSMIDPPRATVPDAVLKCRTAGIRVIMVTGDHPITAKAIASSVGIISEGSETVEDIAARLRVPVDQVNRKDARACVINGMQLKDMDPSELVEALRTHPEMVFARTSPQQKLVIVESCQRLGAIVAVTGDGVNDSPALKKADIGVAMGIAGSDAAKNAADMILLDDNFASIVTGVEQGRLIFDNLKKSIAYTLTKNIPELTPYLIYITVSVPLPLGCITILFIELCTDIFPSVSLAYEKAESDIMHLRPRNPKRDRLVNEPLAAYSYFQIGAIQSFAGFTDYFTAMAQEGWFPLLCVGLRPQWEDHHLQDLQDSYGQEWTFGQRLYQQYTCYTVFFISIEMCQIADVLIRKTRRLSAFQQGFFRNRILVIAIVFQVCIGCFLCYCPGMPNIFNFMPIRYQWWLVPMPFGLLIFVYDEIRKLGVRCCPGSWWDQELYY
Proton Potassium ATPase (H+ K+ ATPase), sequence (A0ACI6PNA7 entry or part of it, further chain): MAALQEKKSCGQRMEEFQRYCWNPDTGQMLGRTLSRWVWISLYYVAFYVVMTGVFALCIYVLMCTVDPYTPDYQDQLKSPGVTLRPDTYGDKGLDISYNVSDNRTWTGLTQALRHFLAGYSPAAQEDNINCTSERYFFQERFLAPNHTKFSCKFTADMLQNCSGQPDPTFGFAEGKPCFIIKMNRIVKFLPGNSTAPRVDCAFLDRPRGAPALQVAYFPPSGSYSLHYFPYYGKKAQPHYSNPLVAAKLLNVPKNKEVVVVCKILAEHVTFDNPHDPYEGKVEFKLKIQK

As to `O=C(O)C=Cc1ccccc1` [Cinnamic acid], the “Contribution towards H+K+ ATPase activity of GRAOX” value in assay [1] is listed as roughly 90%. Besides, the “Contribution towards AOX potency of GRAOX” value in assay [2] is given as roughly 2%.
As for Gallic acid/Tannic acid, in assay [1], the “Contribution towards H+K+ ATPase activity of GRAOX” value is listed as roughly 6%. Further, the “Contribution towards AOX potency of GRAOX” value in assay [2] is given as roughly 92%. Also, the “antioxidant potency fold higher than Cinnamic acid” value in assay [2] (ratio versus Cinnamic acid) was roughly 20 fold.

The values are drawn from patent publication US8158608B2, “Bioactive fraction from Zingier officinale and a process for the preparation thereof” (Council of Scientific and Industrial Research, priority 2006, dated 2012).
